# Experimental data from patent US20110190137A1, “METHOD TO INHIBIT ETHYLENE RESPONSES IN PLANTS” (priority 2003, published 2011).
# Experiments:
# [1] = test system: ethylene-induced epinasty in Patio variety tomato plants; test: Tomato epinasty test, spray application treatment; format: in vivo; settings: for Spray @10 ppm: visual rating of protection against ethylene-induced epinasty: spray 10 ppm in 10% acetone/90% water, 0.05% Silwett L-77, 10 ppm ethylene, scale 0 to 10 (10 = complete protection); for Spray @ 1000 ppm: rating of protection against epinasty: spray 1000 ppm (in cell), scale 0 to 10
# Description: (§1) Objective: The test procedure is designed to determine the ability of an experimental compound to block the epinastic growth response induced by ethylene in tomato plants when the experimental compound is administered either as a volatile gas or as a component of a spray solution.
# (§2) Treatment chambers are of an appropriate size for the test plants and are airtight. Each is fitted with a reusable septum to be used for injection of ethylene. Test plants are Patio variety tomato seedlings planted two plants per three inch square plastic pot.
# Spray application treatment entails using a DeVilbiss atomizer to completely cover all foliage and stems of two pots of Patio var. tomato plants with the appropriate amount of experimental compound dissolved in 10% acetone/90% water with 0.05% Silwett L-77 surfactant. Plants are air-dried in a drying hood for four hours then transferred to a 4.8 L polystyrene chamber which is sealed.
# Ethylene gas equal to 10 ppm v/v final concentration is injected into the sealed chamber. Sixteen hours later the chambers are opened in an exhaust hood, allowed to air and the plants scored visually for the degree of protection against ethylene-induced epinasty conferred by the experimental compound when compared to ethylene treated and untreated controls on a scale of 0 to 10. A rating of 10 means complete protection. A rating of 0 means no protection from the effects of ethylene.
# [2] = test system: ethylene-induced epinasty in Patio variety tomato plants; test: Tomato epinasty test, volatile gas treatment; format: in vivo; settings: for Gas @ 10 ppm: visual rating of protection against ethylene-induced epinasty: gas 10 ppm v/v, 10 ppm ethylene, scale 0 to 10 (10 = complete protection); for Gas @ 1000 ppm: visual rating of protection against ethylene-induced epinasty: gas 1000 ppm v/v, 10 ppm ethylene after 4 h, scored 16 h later, scale 0 (no protection) to 10 (complete protection); for Gas @ 343.4 ppm: rating of protection against epinasty: gas 343.4 ppm (in cell)
# Description: as §1, §2
# Volatile gas treatment entails placing two pots of Patio var. tomatoes into a polystyrene 4.8 L volume treatment chamber along with one-half (upper or lower section) of a 50×9 mm plastic Petri dish containing a Gelman filter pad. The appropriate amount of experimental compound, dissolved in 1.0 ml acetone, is pipetted onto the filter pad and the chamber immediately sealed. Four hours later ethylene gas equal to 10 ppm v/v final concentration is injected into the sealed chamber. Sixteen hours later the chambers are opened in an exhaust hood, allowed to air and the plants scored visually for the degree of protection against ethylene-induced epinasty conferred by the experimental compound when compared to ethylene treated and untreated controls on a scale of 0 to 10. A rating of 10 means complete protection. A rating of 0 means no protection from the effects of ethylene. Gas treatment concentrations are volume/volume.
Compound,Spray @10 ppm: visual rating of protection against ethylene-induced epinasty [1],Gas @ 10 ppm: visual rating of protection against ethylene-induced epinasty [2],Gas @ 1000 ppm: visual rating of protection against ethylene-induced epinasty [2],also measured
CC(C)(C)OC(=O)N1CC(C(=O)OCCC2=CC2)CS1 (stereo not drawn) [Compound 52],2,0,3,Spray @ 1000 ppm: rating of protection against epinasty [1]: 10
"CCC1=C(COc2cccc(C(F)(F)F)c2)C1 [Compound 37, 1-(3-trifluoromethylphenoxymethyl)-2-ethylcyclopropene]",0,0,2,
"CCCC[Si](C)(C)C1=C(C)C1 [Compound 80, 1-(Butyldimethylsilyl)-2-methylcyclopropene]",0,0,7,
C1=C(CCSc2ccncc2)C1 [Compound 43],0,10,,
"O=C(O)CC1(c2ccccc2)C(c2ccccc2)=C1c1ccccc1 [Compound 40, 3-Hydroxycarbonylmethyl-1,2,3-triphenylcyclopropene]",0,7,,
"Clc1ccc(CC2=CC2)cc1 [Compound 1, 1-Chloro-4-cycloprop-1-enylmethyl-benzene]",10,10,,
CC1(CCc2ccccc2)C=C1 [Compound 19],2,2,7.5,
1-((2-Carboxy-N-morpholino)ethyl)-cyclopropene [Compound 15],0,10,,
Cc1ccc(CC2=CC2)cc1 [Compound 24],10,10,,
"CCCCCCCCC1=C(Br)C1 [Compound 71, 1-Bromo-2-octyl-cyclopropene]",3,1,10,
"C[Si](C)(C)CCC1C=C1 [Compound 66, 2-(Trimethylsilyl)-ethylcycloprop-2-ene]",10,10,,
C1=C(CCCc2ccccc2)C1 [Compound 25],10,10,,
CC(=O)OCOC(=O)CCC1=C(Br)C1 [Compound 75],0,10,,
O=C(OCCCCCCCC1=CC1)C1CCCO1 (stereo not drawn) [Compound 54],0,0,2,
"CC[Si](CC)(CC)C1=C(C)C1 [Compound 81, 1-Triethylsilyl-2-methylcyclopropene]",0,0,10,
"CC1=C(Cc2ccccc2)C1 [Compound 8, 1-methyl-2-benzylcyclopropene]",0,0,10,
"CCC1=C(COS(C)(=O)=O)C1 [Compound 83, 1-(Methanesulfonyloxymethyl)-2-ethylcyclopropene]",2,4,10,
CC1(Cc2ccccc2)C=C1 [Compound 20],0,0,7,

Compound,Spray @10 ppm: visual rating of protection against ethylene-induced epinasty [1],Gas @ 10 ppm: visual rating of protection against ethylene-induced epinasty [2],Gas @ 1000 ppm: visual rating of protection against ethylene-induced epinasty [2],also measured
"C1=C(CCCSc2ccccn2)C1 [Compound 55, 1-(2-Pyridylthiopropyl)-cyclopropene]",3,,,"Gas @ 800 ppm: rating of protection against epinasty ([2]; gas 800 ppm (in cell), scale 0 to 10): 10(@800"
Cc1cc(C)nc(CCC2=CC2)n1 [Compound 42],2,,,Gas @ 343.4 ppm: rating of protection against epinasty ([2]; scale 0 to 10): 3(@ 343.4
O=C(O)CCC1=C(Br)C1 [Compound 77],2,8,,
O=C(OCCC1=CC1)c1ccc(-n2cccc2)cc1 [Compound 62],0,0,,"Gas @ 509 ppm: rating of protection against epinasty ([2]; gas 509 ppm (in cell), scale 0 to 10): 10(@509"
"CS(=O)(=O)OCCCCCCCC1=CC1 [Compound 69, 1-(7-Methanesulfonyloxyheptyl)-cyclopropene]",0,0,8,
C1=C(CC2CCCCC2)C1 [Compound 23],10,10,,
Cc1nnsc1C(=O)OCCC1=CC1 [Compound 51],0,0,3,Spray @ 1000 ppm: rating of protection against epinasty [1]: 8
"C(CCCCCCC1=CC1)=NN1CCCCC1 [Compound 36, 1-(7-(N-piperidinoimino-heptyl))-cyclopropene]",3,5,,"Gas @ 500 ppm: rating of protection against epinasty ([2]; gas 500 ppm, scale 0 to 10): 10^c^"
C1=C(CCSc2ccccn2)C1 [Compound 35],9,10,,
Cc1cc(C)c(CC2=CC2)c(C)c1 [Compound 30],0,3,8,
O=C(OCCC1=CC1)c1cc2ccccc2o1 [Compound 49],0,0,,Gas @ 343.4 ppm: rating of protection against epinasty ([2]; scale 0 to 10): 9(@343.4
"C[Si](C)(C)CCCCCCC1C=C1 [Compound 65, 6-(Trimethylsilyl)-hexylcycloprop-2-ene]",6,10,,
"C[Si](C)(CCCCCCC1=CC1)c1ccccc1 [Compound 4, 1-(6-(Phenyldimethylsilyl)-hexyl)-cyclopropene]",10,4,,
"CCCCCCCCCC1(C)C=C1 [Compound 73, 3-Methyl-3-nonyl-cyclopropene]",0,0,8,
"CCC1=C(n2cc(Br)cn2)C1 [Compound 11, 2-(1-(4-Bromopyrazole))-1-ethylcyclopropene]",0,2,,"Gas, tested at 600 ppm: rating of protection against epinasty ([2]; gas 600 ppm (footnote a), scale 0 to 10): 8^a"
C1=C(CC2CCCCCC2)C1 [Compound 22],10,9,,
"C1=C(CCCCCCCN(c2ccccc2)c2ccccc2)C1 [Compound 13, 7-(diphenylamino)-1-heptylcyclopropene]",10,0,,
"CC1(COc2ccccc2)C=C1 [Compound 7, 3-Methyl-3-Phenoxymethylcycloprop-2-ene]",2,4,10,
